The target of this test is T1, rat metabotropic glutamate receptor 5 (mGluR5) (Rattus norvegicus, UniProt P31424).
T1 construct: expressed in transfected cells; host or cells: HEK 293
T1 sequence (P31424 21-1171 isoform P31424-2 limits assumed): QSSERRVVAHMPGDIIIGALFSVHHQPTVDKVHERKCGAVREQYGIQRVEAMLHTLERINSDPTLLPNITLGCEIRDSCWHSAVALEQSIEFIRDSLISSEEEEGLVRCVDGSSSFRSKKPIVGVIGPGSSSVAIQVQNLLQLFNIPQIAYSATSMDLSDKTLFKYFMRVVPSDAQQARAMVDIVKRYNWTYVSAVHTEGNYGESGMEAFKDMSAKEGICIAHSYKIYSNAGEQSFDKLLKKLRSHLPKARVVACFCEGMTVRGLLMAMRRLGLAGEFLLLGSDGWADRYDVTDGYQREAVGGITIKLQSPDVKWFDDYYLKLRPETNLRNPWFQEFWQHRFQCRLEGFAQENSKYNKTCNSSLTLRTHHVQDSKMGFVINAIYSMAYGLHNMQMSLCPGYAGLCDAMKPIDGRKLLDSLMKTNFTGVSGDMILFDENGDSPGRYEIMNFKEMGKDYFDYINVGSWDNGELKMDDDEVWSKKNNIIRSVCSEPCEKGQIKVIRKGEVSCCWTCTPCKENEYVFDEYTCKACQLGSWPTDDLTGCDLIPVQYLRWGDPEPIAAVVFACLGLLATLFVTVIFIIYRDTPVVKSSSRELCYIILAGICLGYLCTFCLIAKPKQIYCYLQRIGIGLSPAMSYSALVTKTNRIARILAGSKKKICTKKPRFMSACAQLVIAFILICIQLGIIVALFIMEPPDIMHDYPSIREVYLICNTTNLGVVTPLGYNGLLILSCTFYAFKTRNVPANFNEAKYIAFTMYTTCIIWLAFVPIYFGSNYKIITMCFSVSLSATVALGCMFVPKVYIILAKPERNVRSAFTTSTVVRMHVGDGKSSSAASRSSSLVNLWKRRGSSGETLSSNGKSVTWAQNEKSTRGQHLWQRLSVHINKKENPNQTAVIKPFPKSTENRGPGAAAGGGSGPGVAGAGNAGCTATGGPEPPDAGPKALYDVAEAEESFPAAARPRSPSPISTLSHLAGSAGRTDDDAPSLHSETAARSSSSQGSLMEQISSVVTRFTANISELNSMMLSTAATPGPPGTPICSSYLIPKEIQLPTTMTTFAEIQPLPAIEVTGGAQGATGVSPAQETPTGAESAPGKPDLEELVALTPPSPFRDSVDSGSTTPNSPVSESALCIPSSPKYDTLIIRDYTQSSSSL
The test can be described thus: Calcium mobilization assay (FLIPR) for negative or positive allosteric activity, HEK 293 cells. It counts as cell-based. To be noted: HEK293, negative allosteric modulation, inhibition of EC80 glutamate response; read-out: FLIPR maximum inhibition. In short, it runs like this: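 Peak Fluo-4 calcium signal over 3 min at room temperature, minus basal, fitted by Hill equation, in stable rat mGluR5 HEK 293 cells (HBSS/HEPES pH 7.4, BSA, probenecid). Inhibition scored against EC80 glutamate, potentiation against EC20 glutamate, glutamate given with compound.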
Take `Cc1cccc(C(=O)NC23CC4CC(C2)CC(NC(=O)c2cccc(C(C)O)n2)(C4)C3)n1` (stereo not drawn) [Example 143, 6-Methyl-pyridine-2-carboxylic acid {3-[(6-(1-hydroxy-ethyl)-pyridine-2-carbonyl)-amino]-adamantan-1-yl}-amide]: the Emax lay in the range of 70 to 99%.
For `O=C(NC12CC3CC(C1)CC(NC(=O)c1ccc4nccn4c1)(C3)C2)c1cccc(F)c1` [Example 101, Imidazo[1,2-a]pyridine-6-carboxylic acid [3-(3-fluoro-benzoylamino)-adamantan-1-yl]-amide] the value was 63 to 99%; for `Cc1cncc(C(=O)NC23CC4CC(C2)CC(NC(=O)c2csc(C)n2)(C4)C3)n1` [Example 157, 6-Methyl-pyrazine-2-carboxylic acid {3-[(2-methyl-thiazole-4-carbonyl)-amino]-adamantan-1-yl}-amide], 70 to 99%.
For `Cc1cncc(C(=O)NC23CC4CC(C2)CC(NC(=O)c2cccc(C(F)(F)F)c2F)(C4)C3)n1` [Example 150, 6-Methyl-pyrazine-2-carboxylic acid [3-(2-fluoro-3-trifluoromethyl-benzoylamino)-adamantan-1-yl]-amide] the value was 70 to 99%; for `O=C(NC12CC3CC(C1)CC(NC(=O)c1cccc(N4CCC(O)CC4)n1)(C3)C2)c1cccc(F)c1` [Example 218, 4-Hydroxy-3,4,5,6-tetrahydro-2H-[1,2′]-bipyridinyl-6′-carboxylic acid [3-(3-fluoro-benzoylamino)-adamantan-1-yl]-amide], 63 to 99%; for `COCCN(C)c1cccc(C(=O)NC23CC4CC(CC(NC(=O)c5cccc(F)c5)(C4)C2)C3)n1` [Example 246, 6-[(2-Methoxy-ethyl)-methyl-amino]-pyridine-2-carboxylic acid [3-(3-fluoro-benzoylamino)-adamantan-1-yl]-amide], 63 to 99%.
For `Cc1cccc(C(=O)NC23CC4CC(CC(NC(=O)c5cccc(CCl)c5)(C4)C2)C3)n1` [Example 45, 6-Methyl-pyridine-2-carboxylic acid [3-(3-chloromethyl-benzoylamino)-adamantan-1-yl]-amide] the value was 63 to 99%; for `O=C(NC12CC3CC(C1)CC(NC(=O)c1cccc(-n4ccnc4)n1)(C3)C2)c1cccc(F)c1` [Example 255, 6-Imidazol-1-yl-pyridine-2-carboxylic acid [3-(3-fluoro-benzoylamino)-adamantan-1-yl]-amide], 63 to 99%; for `Cc1cccc(C(=O)NC23CC4CC(CC(NC(=O)c5cccc(F)c5)(C4)C2)C3)n1` [Example 30, 6-Methyl-pyridine-2-carboxylic acid [3-(3-fluoro-benzoylamino)-adamantan-1-yl]-amide], 63 to 99%.
On to `O=C(NC12CC3CC(C1)CC(NC(=O)C1CCC1)(C3)C2)c1ccccn1` [Example 82, Pyridine-2-carboxylic acid [3-(cyclobutanecarbonyl-amino)-adamantan-1-yl]-amide], for which the Emax is 63 to 99%.
For `Cc1cncc(C(=O)NC23CC4CC(CC(NC(=O)c5cncc(Cl)c5)(C4)C2)C3)n1` [Example 170, 6-Methyl-pyrazine-2-carboxylic acid {3-[(5-chloro-pyridine-3-carbonyl)-amino]-adamantan-1-yl}-amide] the value was 63 to 99%; for `CN(C)C1CCN(c2cccc(C(=O)NC34CC5CC(CC(NC(=O)c6cccc(F)c6)(C5)C3)C4)n2)C1` (stereo not drawn) [Example 217, 6-(3-Dimethylamino-pyrrolidin-1-yl)-pyridine-2-carboxylic acid [3-(3-fluoro-benzoylamino)-adamantan-1-yl]-amide], 63 to 99%.
On to `CC(=O)c1cccc(C(=O)NC23CC4CC(CC(NC(=O)c5cccc(C)n5)(C4)C2)C3)n1` [Example 142, 6-Methyl-pyridine-2-carboxylic acid {3-[(6-acetyl-pyridine-2-carbonyl)-amino]-adamantan-1-yl}-amide], for which the Emax lay within 70 to 99%.
Regarding `O=C(NC12CC3CC(C1)CC(NC(=O)c1ccccn1)(C3)C2)c1ccn2ccnc2c1` [Example 87, Imidazo[1,2-a]pyridine-7-carboxylic acid {3-[(pyridine-2-carbonyl)-amino]-adamantan-1-yl}-amide], the Emax was 63 to 99%.
For `COCCNc1cccc(C(=O)NC23CC4CC(CC(NC(=O)c5cccc(C)n5)(C4)C2)C3)n1` [Example 235] the value was 63 to 99%.
For `Cc1cncc(C(=O)NC23CC4CC(C2)CC(NC(=O)c2ccc5cnccc5n2)(C4)C3)n1` [Example 174, [1,6]Naphthyridine-2-carboxylic acid {3-[(6-methyl-pyrazine-2-carbonyl)-amino]-adamantan-1-yl}-amide] the value was 63 to 99%; for `Cc1cccc(C(=O)NC23CC4CC(C2)CC(NC(=O)c2cccc(NCCN(C)C)n2)(C4)C3)n1` [Example 232, 6-(2-Dimethylamino-ethylamino)-pyridine-2-carboxylic acid {3-[(6-methyl-pyridine-2-carbonyl)-amino]-adamantan-1-yl}-amide], 63 to 99%.
Regarding `Cc1ccc(C(=O)NC23CC4CC(C2)CC(NC(=O)c2cccc(C)n2)(C4)C3)nc1` [Example 130, 6-Methyl-pyridine-2-carboxylic acid {3-[(5-methyl-pyridine-2-carbonyl)-amino]-adamantan-1-yl}-amide], the Emax is 70 to 99%.
For `Cc1nccc(C(=O)NC23CC4CC(CC(NC(=O)c5ccc(F)cn5)(C4)C2)C3)n1` [Example 191, 2-Methyl-pyrimidine-4-carboxylic acid {3-[(5-fluoro-pyridine-2-carbonyl)-amino]-adamantan-1-yl}-amide] the value was 63 to 99%; for `O=C(NC12CC3CC(C1)CC(NC(=O)C1CC1(F)F)(C3)C2)c1ccccn1` (stereo not drawn) [Example 83, Pyridine-2-carboxylic acid {3-[(2,2-difluoro-cyclopropanecarbonyl)-amino]-adamantan-1-yl}-amide], 63 to 99%.
For `COCCN(C)c1cccc(C(=O)NC23CC4CC(CC(NC(=O)c5ccccn5)(C4)C2)C3)n1` [Example 225, 6-[(2-Methoxy-ethyl)-methyl-amino]-pyridine-2-carboxylic acid {3-[(pyridine-2-carbonyl)-amino]-adamantan-1-yl}-amide] the value was 63 to 99%; for `O=C(NC12CC3CC(C1)CC(NC(=O)c1ccnc(C(F)(F)F)n1)(C3)C2)c1ccccn1` [Example 112, 2-Trifluoromethyl-pyrimidine-4-carboxylic acid {3-[(pyridine-2-carbonyl)-amino]-adamantan-1-yl}-amide], 70 to 99%.
The figure for `Cc1cccc(C(=O)NC23CC4CC(C2)CC(NC(=O)c2ccc5cccnc5n2)(C4)C3)n1` [Example 27, [1,8]Naphthyridine-2-carboxylic acid {3-[(6-methyl-pyridine-2-carbonyl)-amino]-adamantan-1-yl}-amide] is 63 to 99%; for `O=C(NC12CC3CC(C1)CC(NC(=O)c1cccc(N4CCC(O)CC4)n1)(C3)C2)c1ccccn1` [Example 200, 4-Hydroxy-3,4,5,6-ttrahydro-2H-[1,2′]bipyridinyl-6′-carboxylic acid {3-[(pyridine-2-carbonyl)-amino]-adamantan-1-yl}-amide] it is 63 to 99%.
Turning to `Cc1cccc(C(=O)NC23CC4CC(C2)CC(NC(=O)c2cccc(F)n2)(C4)C3)n1` [Example 135, 6-Methyl-pyridine-2-carboxylic acid {3-[(6-fluoro-pyridine-2-carbonyl)-amino]-adamantan-1-yl}-amide], the Emax was 70 to 99%.
On to `Cc1cccc(C(=O)NC23CC4CC(C2)CC(NC(=O)c2cn5cc(Cl)ccc5n2)(C4)C3)n1` [Example 50, 6-Chloro-imidazo[1,2-a]pyridine-2-carboxylic acid {3-[(6-methyl-pyridine-2-carbonyl)-amino]-adamantan-1-yl}-amide], for which the Emax was in the range of 63 to 99%.
For `COc1cccc(C(=O)NC23CC4CC(CC(NC(=O)c5ccccn5)(C4)C2)C3)n1` [Example 68, 6-Methoxy-pyridine-2-carboxylic acid {3-[(pyridine-2-carbonyl)-amino]-adamantan-1-yl}-amide] the value was 63 to 99%; for `Cc1cncc(C(=O)NC23CC4CC(C2)CC(NC(=O)c2ncccc2C)(C4)C3)n1` [Example 168, 6-Methyl-pyrazine-2-carboxylic acid {3-[(3-methyl-pyridine-2-carbonyl)-amino]-adamantan-1-yl}-amide], 63 to 99%.
As for `COc1cc(C(=O)NC23CC4CC(C2)CC(NC(=O)c2cncc(C)n2)(C4)C3)ccn1` [Example 154, 6-Methyl-pyrazine-2-carboxylic acid {3-[(2-methoxy-pyridine-4-carbonyl)-amino]-adamantan-1-yl}-amide], the Emax lay within 70 to 99%.
As to `Cc1cccc(C(=O)NC23CC4CC(CC(NC(=O)c5cc(F)ccn5)(C4)C2)C3)n1` [Example 125, 6-Methyl-pyridine-2-carboxylic acid {3-[(4-fluoropyridine-2-carbonyl)-amino]-adamantan-1-yl}-amide], the Emax fell in the range of 70 to 99%.
Turning to `Cc1cccc(C(=O)NC23CC4CC(C2)CC(NC(=O)c2cccc(N)n2)(C4)C3)n1` [Example 117, 6-Methyl-pyridine-2-carboxylic acid {3-[(6-aminopyridine-2-carbonyl)-amino]-adamantan-1-yl}-amide], the Emax lay in the range of 70 to 99%.
The figure for `O=C(NC12CC3CC(C1)CC(NC(=O)c1ccccn1)(C3)C2)c1ccccc1` [Example 71, Pyridine-2-carboxylic acid (3-benzoylamino-adamantan-1-yl)-amide] is 63 to 99%; for `CN(C)CCNc1cccc(C(=O)NC23CC4CC(CC(NC(=O)c5ccccn5)(C4)C2)C3)n1` [Example 222, 6-(2-Dimethylamino-ethylamino)-pyridine-2-carboxylic acid {3-[(pyridine-2-carbonyl)-amino]-adamantan-1-yl}-amide] it is 63 to 99%.

Source of the values: patent publication US8716284B2, “Adamantyl diamide derivatives and uses of same” (H. Lundbeck A/S, priority 2008, dated 2014).
